Source: ChEMBL document CHEMBL3865835, “α-Glucosidase and α-Amylase Inhibitors from Arcytophyllum thymifolium” (J Nat Prod, 2016)
Blank lines part the entries; values can stand above or below the molecule they belong to. Active and inactive are the calls of the source. The calls are words filed in the database; no cut-off is given here.

Columns and labels:
[1] = (§1) Inhibition of Saccharomyces cerevisiae alpha-glucosidase using 4-nitrophenyl alpha-D-glucopyranoside as substrate after 10 mins by UV-Vis spectrophotometric analysis
[2] = molecular target: T1, Pancreatic alpha-amylase (Sus scrofa) (UniProt P00690); assay: (§2) Inhibition of hog pancreas alpha-amylase using starch as substrate preincubated for 10 mins followed by substrate addition measured after 10 mins by dinitrosalicylic acid color reagent-based UV-Vis spectrophotometric analysis
T1 sequence (whole entry): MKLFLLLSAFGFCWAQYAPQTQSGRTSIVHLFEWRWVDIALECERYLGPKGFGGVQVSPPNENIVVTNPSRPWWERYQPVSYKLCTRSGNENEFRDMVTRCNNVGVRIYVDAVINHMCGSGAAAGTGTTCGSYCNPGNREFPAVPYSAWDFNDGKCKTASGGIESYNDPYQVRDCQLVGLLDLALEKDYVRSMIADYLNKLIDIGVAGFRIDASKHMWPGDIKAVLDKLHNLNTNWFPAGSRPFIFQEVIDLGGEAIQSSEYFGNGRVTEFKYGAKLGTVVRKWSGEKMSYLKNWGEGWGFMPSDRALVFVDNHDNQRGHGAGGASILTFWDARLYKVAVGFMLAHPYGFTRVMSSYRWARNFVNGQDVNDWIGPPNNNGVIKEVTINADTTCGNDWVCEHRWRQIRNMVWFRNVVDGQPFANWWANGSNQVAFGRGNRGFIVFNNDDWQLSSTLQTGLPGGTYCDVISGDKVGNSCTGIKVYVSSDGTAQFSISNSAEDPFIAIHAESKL

[3] = test system: Saccharomyces cerevisiae; assay: as §1
[4] = molecular target: T2, Pancreatic alpha-amylase (Sus scrofa, UniProt P00690); assay: as §2
T2 sequence (P00690 whole entry): T1 sequence (whole entry)

[5] = test system: Saccharomyces cerevisiae; assay: Potency index, ratio of acarbose IC50 to compound IC50 for Saccharomyces cerevisiae alpha-glucosidase

inhibition [2]: Active | inhibition [3]: Active
SMILES: COc1cc2ccc(=O)oc2c2c1O[C@](C)(CO)C(O)=C2

inhibition [2]: Active | inhibition [3]: Active
SMILES: C=C(C)C(O)Cc1c(O)c(OC)cc2ccc(=O)oc12 (configuration not stated)

inhibition [3]: Active
SMILES: COc1cc2ccc(=O)oc2c(O)c1O

inhibition [2]: Active
SMILES: C[C@]1(CO)Oc2c(O)cc3ccc(=O)oc3c2C=C1O

inhibition [2]: Active | inhibition [3]: Active
SMILES: C=C(C)[C@H]1Cc2c(c(O)cc3ccc(=O)oc23)O1

Further lines, the molecule ahead of its results:

SMILES: C[C@H]1O[C@H](O[C@H]2[C@H](O)[C@@H](O)[C@@H](O[C@H]3[C@H](O)[C@@H](O)C(O)O[C@@H]3CO)O[C@@H]2CO)[C@H](O)[C@@H](O)[C@@H]1N[C@H]1C=C(CO)[C@@H](O)[C@H](O)[C@H]1O (some centres not stated) [ACARBOSE]
IC50 [1]: 403 µM

SMILES: COc1cc(O)c2c(=O)c(O)c(-c3ccc(O)c(O)c3)oc2c1 [RHAMNETIN]
IC50 [4]: 73.9 µM

SMILES: CC(=O)OCC1=C[C@@H]2OC(=O)C3=CO[C@@H](O[C@@H]4O[C@H](CO)[C@@H](O)[C@H](O)[C@H]4O)[C@H]1[C@@H]32
inhibition [2]: Active

SMILES: CC(=O)OCC1=C[C@H](O)[C@@H]2C(C(=O)O)=CO[C@@H](O[C@@H]3O[C@H](CO)[C@@H](O)[C@H](O)[C@H]3O)[C@H]12
IC50 [4]: 69.4 µM

SMILES: O=C(/C=C/c1ccc(O)c(O)c1)O[C@@H]1C[C@](O)(C(=O)O)C[C@@H](O)[C@H]1O
inhibition [2]: Active

SMILES: O=C(O)C1=CO[C@@H](O[C@@H]2O[C@H](CO)[C@@H](O)[C@H](O)[C@H]2O)[C@@H]2C(CO)=C[C@@H](O)[C@H]12
inhibition [2]: Active

SMILES: CC(C)=CCOc1cc(O)c2c(c1)O[C@H](c1ccc(O)c(O)c1)CC2=O
IC50 [1]: 28.1 µM | Ratio IC50 [5]: 10

SMILES: O=c1c(O[C@@H]2O[C@H](CO)[C@H](O)[C@H](O)[C@H]2O[C@@H]2O[C@H](CO)[C@@H](O)[C@H](O)[C@H]2O)c(-c2ccc(O)cc2)oc2cc(O)cc(O)c12
inhibition [2]: Active
